Results on three compounds are retold here after patent publication US20250144220A1, “CONJUGATE FOR PREVENTING AND TREATING VIRAL INFECTIONS AND USE THEREOF” (priority 2021, published 2025).

Where two headings read alike, the source gives them in different places.

Common to all, as to assay: microbe, parasite or virus in culture
Assay type in all cases: cell-based, influenza virus H1N1

Test [1] relates to Baloxavir-resistant A/PR/8/34 (H1N1).
Test [2] concerns VX-787-resistant A/PR/8/34 (H1N1).
The subject of test [3] is Oseltamivir-resistant A/Weiss/43 (H1N1).

What is called EC50 is the concentration that produces a half-maximal response.

Take `O=C1c2c(O)c(=O)ccn2N([C@@H]2c3ccccc3SCc3c2ccc(F)c3F)[C@@H]2COCCN12` [Baloxavir, baloxivir]: the EC50 in test [1] (Influenza A virus, MDCK, 120 h) was 0.095 µM; in test [2] (Influenza A virus, MDCK, 120 h), 0.00058 µM.

With `CCC(CC)O[C@@H]1C=C(C(=O)O)C[C@H](N)[C@H]1NC(C)=O` [Oseltamivir acid], the EC50 in test [1] (Influenza A virus, MDCK, 120 h) was 2.38 µM; in test [2] (Influenza A virus, MDCK, 120 h), 1.06 µM; in test [3] (Influenza A virus, H1N1, MDCK, 120 h), > 100 µM.

As for `CC(=O)N[C@H]1[C@H]([C@H](O)[C@H](O)CO)OC(C(=O)O)=C[C@@H]1N=C(N)N` [Zanamivir, zanamivir, reference compound], the EC50 in test [1] (read-out: EC50) is 1.39 µM; in test [2] (read-out: EC50), 0.167 µM; in test [3] (read-out: EC50), 0.0244 µM.
